A word on the pIC50: it is the negative decadic logarithm of the IC50, by convention in mol/L.

pIC50: −log10 of the molar value. Bounds are passed on as bounds.

This test addresses Pol theta (1-899) (Homo sapiens (Human), UniProt O75417). Description: Pol theta ATPase activity, NADH oxidation-coupled enzymatic assay. Conditions: Pol theta (1-899) 10 nM, ATP, dT50 ssDNA, absorbance 340 nm, 10-point dilution series; read-out: ATPase NADH coupling:Standard Screening:hPolQ IC50. The class given is biochemical. As to the method: The ability of the compounds of Formula (I) to inhibit ATPase activity of Pol theta (1-899) was determined using the assay described below.
Pol Theta ATPase activity was determined by measuring the rate of ATP turn over in a NADH oxidation-coupled enzymatic assay. 10-point dilution series of compounds were used in a 384 well format for the inhibition assays. Pol theta (1-899) (10 nM) in assay buffer (20 mM Tris HCl (pH 7.80), 80 mM KCl, 10 mM MgCl2, 1 mM DTT, 0.01% BSA, 0.01% Tween, 5% glycerol) was transferred to the test wells (20 μL), except the low control wells (20 μL of assay buffer was added to the low control wells). The plate was then incubated at room temperature for 15 min. An equal volume (20 μL) of 100 μM ATP, 300 nM dT50 (single-stranded DNA (ssDNA) containing 50 thymine bases), 300 μM NADH, 6 mM PEP, 10 U/mL lactate dehydrogenase and 20 U/mL pyruvate kinase in assay buffer was added to all the test wells. The plate was then centrifuged at 1000 rpm for 1 min. The reaction was monitored for 30 min by measuring absorbance (λ=340 nm) in a Tecan Spark multimode plate reader every minute. The high control (DMSO with enzyme) with low absorbance intensity represents no inhibition of ATPase reaction while the low control (DMSO with buffer) with high absorbance intensity represents full inhibition of ATPase activity. Slope of the reaction progress curves were used to calculate the rate of ATP hydrolysis. The rates were used to determine the percent inhibition using a four-parameter inhibition model to generate IC50, Hill slope and max inhibition.

Sequence of Pol theta (1-899) (O75417 1-899): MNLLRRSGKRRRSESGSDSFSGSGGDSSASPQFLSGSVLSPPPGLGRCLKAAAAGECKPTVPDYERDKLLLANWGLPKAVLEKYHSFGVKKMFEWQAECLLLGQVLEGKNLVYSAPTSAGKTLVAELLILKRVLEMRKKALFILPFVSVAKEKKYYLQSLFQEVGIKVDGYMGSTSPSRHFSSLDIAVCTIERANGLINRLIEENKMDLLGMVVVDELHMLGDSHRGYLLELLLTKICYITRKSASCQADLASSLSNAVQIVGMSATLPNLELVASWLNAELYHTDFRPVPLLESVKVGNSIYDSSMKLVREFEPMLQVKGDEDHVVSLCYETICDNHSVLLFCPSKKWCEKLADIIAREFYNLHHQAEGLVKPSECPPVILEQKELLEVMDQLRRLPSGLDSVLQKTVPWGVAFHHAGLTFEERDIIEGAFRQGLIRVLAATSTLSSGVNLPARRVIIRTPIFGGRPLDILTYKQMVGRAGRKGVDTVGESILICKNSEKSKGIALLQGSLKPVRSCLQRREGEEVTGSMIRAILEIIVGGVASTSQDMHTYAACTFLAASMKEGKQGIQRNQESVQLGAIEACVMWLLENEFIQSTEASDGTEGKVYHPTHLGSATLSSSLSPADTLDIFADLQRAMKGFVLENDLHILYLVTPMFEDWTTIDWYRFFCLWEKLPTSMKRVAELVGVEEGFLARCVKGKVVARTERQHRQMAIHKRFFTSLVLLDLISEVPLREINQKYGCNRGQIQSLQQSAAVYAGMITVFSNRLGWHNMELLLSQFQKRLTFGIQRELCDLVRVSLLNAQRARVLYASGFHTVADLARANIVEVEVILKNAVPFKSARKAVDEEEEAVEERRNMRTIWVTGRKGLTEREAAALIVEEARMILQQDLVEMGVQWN

In the case of `NC(=O)c1cc(N2CCOCC2)c(C(=O)Nc2nnc(OCc3ccc(Cl)cc3)s2)cn1` [Example 48, N^5-(5-((4-chlorobenzyl)oxy)-1,3,4-thiadiazol-2-yl)-4-morpholinopyridine-2,5-dicarboxamide], the negative-log IC50 (pIC50) is 6.30 to 6.70.
Turning to `COc1cccc(-n2cncc2C(=O)Nc2nnc(OCc3ccc(Cl)cc3)s2)c1` [Example 49, N-(5-((4-chlorobenzyl)oxy)-1,3,4-thiadiazol-2-yl)-1-(3-methoxyphenyl)-1H-imidazole-5-carboxamide], the negative-log IC50 (pIC50) is 6.00 to 6.30.
Under `COc1ccccc1-n1cncc1C(=O)Nc1nnc(OCc2ccc(Cl)cc2)s1` [Example 50, N-(5-((4-chlorobenzyl)oxy)-1,3,4-thiadiazol-2-yl)-1-(2-methoxyphenyl)-1H-imidazole-5-carboxamide] stands at least 6.70.
With `O=C(Nc1nnc(OCc2ccc(Cl)cn2)s1)c1cccnc1-c1ccccc1Cl` [Example 51, 2-(2-chlorophenyl)-N-[5-[(5-chloropyridin-2-yl)methoxy]-1,3,4-thiadiazol-2-yl]pyridine-3-carboxamide], the pIC50 is 5.00 to 6.00.
Take `O=C(Nc1nnc(OCc2ccc(Cl)cc2)s1)c1cccnc1C1=CCOCC1` [Example 53, N-(5-((4-chlorobenzyl)oxy)-1,3,4-thiadiazol-2-yl)-2-(3,6-dihydro-2H-pyran-4-yl)nicotinamide]: the negative logarithm of the IC50 (pIC50) was 6.00 to 6.30.
The result for `O=C(Nc1nnc(OCc2ccc(Cl)cc2)s1)c1cccnc1C1CCOCC1` [Example 54, N-[5-[(4-chlorophenyl)methoxy]-1,3,4-thiadiazol-2-yl]-2-(oxan-4-yl)pyridine-3-carboxamide] reads 6.00 to 6.30.
For `O=C(Nc1nnc(OCc2ccc(Cl)cc2)s1)c1cncn1C1CCOCC1` [Example 55, N-(5-((4-chlorobenzyl)oxy)-1,3,4-thiadiazol-2-yl)-1-(tetrahydro-2H-pyran-4-yl)-1H-imidazole-5-carboxamide], the pIC50 was 5.00 to 6.00.
As to `O=C(Nc1nnc(OCc2ccc(C3COC3)cc2)s1)c1cccnc1N1CCOCC1` [Example 56, 2-morpholino-N-(5-((4-(oxetan-3-yl)benzyl)oxy)-1,3,4-thiadiazol-2-yl)nicotinamide], the negative logarithm of the IC50 (pIC50) is 5.00 to 6.00.
As to `O=C(Nc1nnc(OCc2ccc(Cl)cc2)s1)c1ccc(Br)nc1N1CCOCC1` [Example 58, 6-bromo-N-(5-((4-chlorobenzyl)oxy)-1,3,4-thiadiazol-2-yl)-2-morpholinonicotinamide], the pIC50 was 6.00 to 6.30.
Turning to `O=C(Nc1nnc(OCc2ccc(Cl)cc2)s1)c1ccncc1N1CCOCC1` [Example 59, N-(5-((4-chlorobenzyl)oxy)-1,3,4-thiadiazol-2-yl)-3-morpholinoisonicotinamide], the negative-log IC50 (pIC50) is 6.30 to 6.70.
Under `O=C1CCN(c2ncccc2C(=O)Nc2nnc(OCc3ccc(Cl)cc3)s2)CCN1` [Example 61, N-(5-((4-chlorobenzyl)oxy)-1,3,4-thiadiazol-2-yl)-2-(5-oxo-1,4-diazepan-1-yl)nicotinamide] stands 6.00 to 6.30; under `O=C1CN(c2ncccc2C(=O)Nc2nnc(OCc3ccc(Cl)cc3)s2)CCCN1` [Example 63, N-(5-((4-chlorobenzyl)oxy)-1,3,4-thiadiazol-2-yl)-2-(3-oxo-1,4-diazepan-1-yl)nicotinamide], 5.00 to 6.00.
Under `CNC(=O)c1cc(N2CCOCC2)c(C(=O)Nc2nnc(OCc3ccc(Cl)cc3)s2)cn1` [Example 64, N^5-(5-((4-chlorobenzyl)oxy)-1,3,4-thiadiazol-2-yl)-N2-methyl-4-morpholinopyridine-2,5-dicarboxamide] stands 6.00 to 6.30.
Under `O=C(Nc1nnc(OCc2ccc(-c3ncco3)cc2)s1)c1cccnc1N1CCOCC1` [Example 65, 2-morpholino-N-(5-((4-(oxazol-2-yl)benzyl)oxy)-1,3,4-thiadiazol-2-yl)nicotinamide] stands 5.00 to 6.00; under `O=C(Nc1nnc(OCc2ccc(Cl)cc2)s1)c1cccnc1N1CCOc2ccccc21` [Example 66, N-(5-((4-chlorobenzyl)oxy)-1,3,4-thiadiazol-2-yl)-2-(2,3-dihydro-4H-benzo[b][1,4]oxazin-4-yl)nicotinamide], 5.00 to 6.00.
As for `COc1ccccc1-c1ncccc1C(=O)Nc1nnc(OCc2ccc(Cl)cc2)s1` [Example 67, N-(5-((4-chlorobenzyl)oxy)-1,3,4-thiadiazol-2-yl)-2-(2-methoxyphenyl)nicotinamide], the negative logarithm of the IC50 (pIC50) was 5.00 to 6.00.
`O=C(Nc1nnc(OCc2ccc(Cl)cc2)s1)c1cccnc1N1CCN(CCO)C(=O)C1` [Example 68, N-(5-((4-chlorobenzyl)oxy)-1,3,4-thiadiazol-2-yl)-2-(4-(2-hydroxyethyl)-3-oxopiperazin-1-yl)nicotinamide]: the pIC50 was 5.00 to 6.00.
Consider `COc1ccccc1-c1nc(C#N)ccc1C(=O)Nc1nnc(OCc2ccc(Cl)cc2)s1` [Example 71, N-(5-((4-chlorobenzyl)oxy)-1,3,4-thiadiazol-2-yl)-6-cyano-2-(2-methoxyphenyl)-nicotinamide], for which the pIC50 was at least 6.70.
The result for `N#Cc1ccc(C(=O)Nc2nnc(OCc3ccc(Cl)cc3)s2)c(N2CCOCC2)c1` [Example 72, N-(5-((4-chlorobenzyl)oxy)-1,3,4-thiadiazol-2-yl)-4-cyano-2-morpholinobenzamide] reads 6.30 to 6.70; that for `CN(C)C(=O)c1cc(N2CCOCC2)c(C(=O)Nc2nnc(OCc3ccc(Cl)cc3)s2)cn1` [Example 73, N^5-(5-((4-chlorobenzyl)oxy)-1,3,4-thiadiazol-2-yl)-N2,N2-dimethyl-4-morpholinopyridine-2,5-dicarboxamide], 5.00 to 6.00.
The result for `O=C(Nc1nnc(OCc2ccc(Cl)cc2)s1)c1cccnc1-c1cc[nH]c(=O)c1` [Example 74, N-(5-((4-chlorobenzyl)oxy)-1,3,4-thiadiazol-2-yl)-2′-hydroxy-[2,4′-bipyridine]-3-carboxamide or its tautomer N-(5-((4-chlorobenzyl)oxy)-1,3,4-thiadiazol-2-yl)-2′-oxo-1′,2′-dihydro-[2,4′-bipyridine]-3-carboxamide] reads 6.00 to 6.30; that for `COc1cc(N2CCOCC2)c(C(=O)Nc2nnc(OCc3ccc(Cl)cc3)s2)cn1` [Example 75, N-(5-((4-chlorobenzyl)oxy)-1,3,4-thiadiazol-2-yl)-6-methoxy-4-morpholino-nicotinamide], 6.00 to 6.30; that for `N#Cc1ccc(C(=O)Nc2nnc(OCc3ccc(Cl)cc3)s2)c(N2CCNC(=O)C2)n1` [Example 76, N-(5-((4-chlorobenzyl)oxy)-1,3,4-thiadiazol-2-yl)-6-cyano-2-(3-oxopiperazin-1-yl)nicotinamide], at least 6.70.
Turning to `COc1ccccc1-c1ccncc1C(=O)Nc1nnc(OCc2ccc(Cl)cc2)s1` [Example 77, N-[5-[(4-chlorophenyl)methoxy]-1,3,4-thiadiazol-2-yl]-4-(2-methoxyphenyl)pyridine-3-carboxamide], the pIC50 is at least 6.70.
For the compound `CC(=O)Nc1cc(N2CCOCC2)c(C(=O)Nc2nnc(OCc3ccc(Cl)cc3)s2)cn1` [Example 78, 6-acetamido-N-(5-((4-chlorobenzyl)oxy)-1,3,4-thiadiazol-2-yl)-4-morpholinonicotinamide], the pIC50 was 5.00 to 6.00.
The result for `O=C(Nc1nnc(OCc2ccc(Cl)cc2)s1)c1cccnc1-c1ccc(=O)[nH]c1` [Example 79, N-(5-((4-chlorobenzyl)oxy)-1,3,4-thiadiazol-2-yl)-6′-oxo-1′,6′-dihydro-[2,3′-bipyridine]-3-carboxamide or its tautomer N-(5-((4-chlorobenzyl)oxy)-1,3,4-thiadiazol-2-yl)-6′-hydroxy-[2,3′-bipyridine]-3-carboxamide] reads 6.00 to 6.30; that for `Cn1cc(-c2ncccc2C(=O)Nc2nnc(OCc3ccc(Cl)cc3)s2)ccc1=O` [Example 80, N-(5-((4-chlorobenzyl)oxy)-1,3,4-thiadiazol-2-yl)-1′-methyl-6′-oxo-1′,6′-dihydro-[2,3′-bipyridine]-3-carboxamide], 6.30 to 6.70.
On to `COc1ccccc1-n1nncc1C(=O)Nc1nnc(OCc2ccc(F)cc2)s1` [Example 82, N-(5-((4-fluorobenzyl)oxy)-1,3,4-thiadiazol-2-yl)-1-(2-methoxyphenyl)-1H-1,2,3-triazole-5-carboxamide], for which the pIC50 is at least 6.70.
`O=C(Nc1nnc(OCc2ccc(Cl)cc2)s1)c1cnccc1N1CCN(CCN2CCOCC2)C(=O)C1` [Example 83, N-[5-[(4-chlorophenyl)methoxy]-1,3,4-thiadiazol-2-yl]-4-[4-[2-(morpholin-4-yl)ethyl]-3-oxopiperazin-1-yl]pyridine-3-carboxamide]: the negative logarithm of the IC50 (pIC50) was 6.00 to 6.30.
Consider `O=C(O)c1cc(N2CCOCC2)c(C(=O)Nc2nnc(OCc3ccc(Cl)cc3)s2)cn1` [Example 84, 5-((5-((4-chlorobenzyl)oxy)-1,3,4-thiadiazol-2-yl)carbamoyl)-4-morpholinopicolinic acid], for which the pIC50 was 5.00 to 6.00.
Take `N#Cc1ccc(C(=O)Nc2nnc(OCc3ccc(Br)cc3)s2)c(N2CCOC3(CC3)C2)n1` [Example 85, N-(5-((4-bromobenzyl)oxy)-1,3,4-thiadiazol-2-yl)-6-cyano-2-(4-oxa-7-azaspiro[2.5]octan-7-yl)nicotinamide]: the pIC50 is at least 6.70.
